This is an account of results in ChEMBL document CHEMBL1158392, “Synthesis and biological evaluation of abietic acid derivatives” (Eur J Med Chem, 2009).

In brackets after ≈: the same amount, converted by molar mass. Activity calls are given as the source filed them. No cut-off for these calls is given here.

Data set [1] deals with Candida parapsilosis. Nature of the data set: Antifungal activity against Candida parapsilosis ATCC 22019 upto 100 ug/mL after 24 hrs by AFST-EUCAST method. It counts as functional, organism-based.
In data set [2] the test system is Pichia kudriavzevii. Nature of the data set: Antifungal activity against Candida krusei ATCC 6258 upto 100 ug/mL after 24 hrs by AFST-EUCAST method. It counts as functional, organism-based.
In data set [3] the test system is Candida tropicalis. Put plainly: Antifungal activity against Candida tropicalis CECT 11901 upto 100 ug/mL after 24 hrs by AFST-EUCAST method. It counts as functional, organism-based.
Data set [4] relates to Candida albicans. Nature of the data set: Antifungal activity against Candida albicans ATCC 10231 upto 100 ug/mL after 24 hrs by AFST-EUCAST method. It counts as functional, organism-based.
The test system of data set [5] is Aspergillus flavus. Put plainly: Antifungal activity against Aspergillus flavus ATCC 204304 upto 100 ug/mL after 48 hrs by CLSI M38-A broth dilution method. It counts as functional, organism-based. (Dilution methods test growth across graded concentrations, often in twofold steps.)
Data set [6] relates to Aspergillus fumigatus. Put plainly: Antifungal activity against Aspergillus fumigatus ATCC 204305 upto 100 ug/mL after 48 hrs by CLSI M38-A broth dilution method. It counts as functional, organism-based.
In data set [7] the test system is Aspergillus terreus. Nature of the data set: Antifungal activity against Aspergillus terreus CDC 317 upto 100 ug/mL after 48 hrs by CLSI M38-A broth dilution method. It counts as functional, organism-based.
For data set [8], the system named is Aspergillus niger. Put plainly: Antifungal activity against Aspergillus niger ATCC 10124 upto 100 ug/mL after 48 hrs by CLSI M38-A broth dilution method. It counts as functional, organism-based.
Data set [9] concerns HeLa. Put plainly: Cytotoxicity against human HeLa cells after 48 hrs by MTT assay. It counts as functional.
Data set [10] in a line: Cytotoxicity against african green monkey Vero cells after 48 hrs by MTT assay. It counts as cell-based. Conditions: chlorocebus sabaeus. On the technique in general: Tetrazolium dyes change colour on reduction, which living cells bring about.
A short description of data set [11]: Selectivity index, ratio of CC50 for african green monkey Vero cells to CC50 for human HeLa cells. It counts as functional.
Data set [12] concerns HeLa. Nature of the data set: Cytotoxicity against human HeLa cells. It counts as cell-based.
Data set [13] has as its system Human alphaherpesvirus 1. Put plainly: Antiviral activity against HSV1 infected in human HeLa cells assessed as viral reduction factor preincubated for 0.5 hrs before infection measured after 36 hrs by end point titration technique relative to control. It counts as functional.
The test system of data set [14] is Human alphaherpesvirus 1. Nature of the data set: Antiviral activity against HSV1 infected in human HeLa cells assessed as maximum dose required for highest viral reduction factor preincubated for 0.5 hrs before infection measured after 36 hrs by end point titration technique. It counts as functional.
Data set [15] deals with Aspergillus fumigatus. Put plainly: Antifungal activity against Aspergillus fumigatus ATCC 204305 after 48 hrs by CLSI M38-A broth dilution method. It counts as functional. To be noted: ATCC 204305, 48 h.

In general, MIC refers to the lowest concentration that inhibits growth of the organism. For orientation: CC50 means the concentration giving 50% cytotoxicity. For the compound `CC(C)=C1CCC2=C(CC[C@H]3[C@](C)(CO)CCC[C@]23C)C1`, the MIC entry in [1], in data set [2], in data set [3], in data set [4], in data set [5] and in data set [6] was “inactive” throughout. Also, the MIC entry in [7] and in data set [8] was “inactive” each time. Moreover, the cytotoxic concentration (CC50) in data set [9] worked out at 19.7 µg/mL (≈ 68.3 µM). This compound also came in with a CC50 at 48 h in data set [10] of 20.2 µg/mL (≈ 70 µM). For the same compound, the “Selectivity Index” value in data set [11] is recorded as 1. The CC100 in data set [12] is 100 µg/mL. Moreover, the outcome in data set [13] was inactive.
For the compound `CC(C)C1=CC2=CC[C@H]3[C@](C)(CO)CCC[C@]3(C)[C@H]2CC1`, the MIC entry in data set [1], in data set [2], in [3], in [4], in data set [5] and in [6] was “inactive” each time. Also, the MIC entry in [7] and in [8] was “inactive” each time. The compound further gave a half-maximal cytotoxic concentration (CC50) in data set [9] of 5.2 µg/mL (≈ 18 µM). Further, in data set [10], it took 12.7 µg/mL (≈ 44 µM) to reach half-maximal cytotoxicity (CC50 at 48 h). Also, in data set [11], the “Selectivity Index” value came out at 2.4. Moreover, the CC100 in data set [12] was 25 µg/mL. In addition, the Activity in [13] came to 10; in [14] it was 6.25 µg/mL.
Consider `CC[C@]1(O)C[C@H]2CN(CCc3c([nH]c4ccccc34)[C@@](C(=O)OC)(c3cc4c(cc3OC)N(C=O)[C@H]3[C@@](O)(C(=O)OC)[C@H](OC(C)=O)[C@]5(CC)C=CCN6CC[C@]43[C@@H]65)C2)C1` [VINCRISTINE], for which the 50% cytotoxic concentration (CC50) in data set [9] worked out at 0.05 µg/mL (≈ 0.0606 µM). In addition, half-maximal cytotoxicity in [10] (CC50 at 48 h) was put at 1.1 µg/mL (≈ 1.33 µM). In addition, the “Selectivity Index” value in [11] was 22.
With `CC(C)C1=CC2=CC[C@@H]3[C@](C)(CCC[C@@]3(C)C(=O)O)[C@H]2CC1` [ABIETIC ACID], the MIC entry in [1], in data set [2], in [3], in data set [4], in [5] and in data set [6] was “inactive” in each case. The MIC entry in [7] and in [8] was “inactive” throughout. Also, the midpoint of cytotoxicity in data set [9], the CC50, lay at 14.9 µg/mL (≈ 49.3 µM). For the same compound, in data set [10], the CC50 at 48 h amounted to 52.5 µg/mL (≈ 174 µM). Also, the “Selectivity Index” value in [11] was 3.5. The same compound had a CC100 in data set [12] of more than 100 µg/mL. Besides, the result in data set [13] was inactive.
For `CC(C)=C1CCC2=C(CC[C@H]3[C@](C)(C=O)CCC[C@]23C)C1`, the MIC result in [1], in data set [2], in data set [3], in [4], in [5] and in [6] was “inactive” in each case. In addition, the MIC result in data set [7] and in [8] was “inactive” each time. Besides, the CC50 in data set [9] was found to be 33.4 µg/mL (≈ 117 µM). The CC50 at 48 h in data set [10] is 55.3 µg/mL (≈ 193 µM). In addition, the “Selectivity Index” value in data set [11] came out at 1.6. This compound came in with a CC100 in data set [12] of more than 100 µg/mL. In data set [13], the outcome was inactive.
Turning to `COC(=O)[C@]1(C)CCC[C@@]2(C)[C@H]1CC=C1C=C(C(C)C)CC[C@@H]12` [METHYL ABIETATE], the MIC entry in data set [1], in data set [2], in data set [3], in [4], in [5] and in [6] was “inactive” each time. Further, the MIC entry in data set [7] and in data set [8] was “inactive” throughout. This compound displayed a CC50 in [9] of 3.6 µg/mL (≈ 11.4 µM). For the same compound, half-maximal cytotoxicity in [10] (CC50 at 48 h) was put at 49.4 µg/mL (≈ 156 µM). In addition, the “Selectivity Index” value in data set [11] was determined as 13.7. The same compound yielded a CC100 in [12] of 50 µg/mL. Also, the Activity in [13] was found to be 10; in data set [14], 6.25 µg/mL.
In turn, `Nc1nc2c(ncn2COCCO)c(=O)[nH]1` [ACYCLOVIR] displayed a CC100 in data set [12] of more than 600 µg/mL. The Activity in data set [13] turned out to be 10; in data set [14] it was 6 µg/mL.
In the case of `CC(C)C1=CC2=CC[C@@H]3[C@](C)(CCC[C@@]3(C)C=O)[C@H]2CC1`, the MIC in data set [15] turned out to be 50 µg/mL (≈ 175 µM). In addition, the MIC entry in data set [1], in [2], in [3], in data set [4], in data set [5] and in data set [7] was “inactive” in each case. Also, the MIC entry in [8] is “inactive”. Moreover, in data set [9], the CC50 amounted to 5.6 µg/mL (≈ 19.5 µM). This compound yielded a 50% cytotoxic concentration (CC50) at 48 h in data set [10] of 31.5 µg/mL (≈ 110 µM). The “Selectivity Index” value in data set [11] is reported as 5.6. In addition, the CC100 in [12] is more than 50 µg/mL. The Activity in data set [13] amounted to 10; in data set [14] it was 12.5 µg/mL.
Turning to `COC(=O)[C@]1(C)CCC[C@]2(C)C3=C(CC[C@@H]12)CC(=C(C)C)CC3`, the MIC result in data set [1], in data set [2], in data set [3], in data set [4], in data set [5] and in data set [6] was “inactive” in each case. In addition, the MIC entry in [7] and in [8] was “inactive” in each case. The CC50 in data set [9] turned out to be 46.6 µg/mL (≈ 147 µM). Further, in [10], the CC50 at 48 h was found to be 19.2 µg/mL (≈ 60.7 µM). Further, the “Selectivity Index” value in data set [11] was 0.4. This compound also displayed a CC100 in data set [12] of 100 µg/mL. In addition, in data set [13], the result was inactive.
Regarding `CC(C)=C1CCC2=C(CC[C@H]3[C@](C)(C(=O)O)CCC[C@]23C)C1`, the MIC entry in [1], in data set [2], in data set [3], in data set [4], in data set [5] and in data set [6] was “inactive” each time. Also, the MIC entry in data set [7] and in [8] was “inactive” each time. This compound returned a CC50 in data set [9] of 53.1 µg/mL (≈ 176 µM). This compound showed a CC50 at 48 h in data set [10] of 43.9 µg/mL (≈ 145 µM). Also, the “Selectivity Index” value in [11] was 0.8. The compound further registered a CC100 in data set [12] of more than 100 µg/mL. The Activity in data set [13] is 10; in [14], 100 µg/mL.
